Results on seven compounds are retold here after ChEMBL document CHEMBL3232851 (Bioorg Med Chem, 2014).

As usually defined, the pEC50 is −log10 of the EC50, conventionally taken in molar units. A word on the pIC50: it is the IC50 on a negative log10 scale, so that one unit is a factor of ten.

pEC50, pIC50: −log10 of the molar value. Where only a bound is given, the exact number is not on record here.

Series [1] can be described thus: Membrane permeabilizing activity of the compound in calcein-loaded egg phosphatidylcholine liposomes assessed as release of calcein from liposomes at pH 6.8 after 10 mins by fluorescence assay. The series is classed as ADME, Microsome.
Series [2] addresses T1, Prostaglandin G/H synthase 2 (Homo sapiens, UniProt P35354).
T1 sequence (P35354 whole entry): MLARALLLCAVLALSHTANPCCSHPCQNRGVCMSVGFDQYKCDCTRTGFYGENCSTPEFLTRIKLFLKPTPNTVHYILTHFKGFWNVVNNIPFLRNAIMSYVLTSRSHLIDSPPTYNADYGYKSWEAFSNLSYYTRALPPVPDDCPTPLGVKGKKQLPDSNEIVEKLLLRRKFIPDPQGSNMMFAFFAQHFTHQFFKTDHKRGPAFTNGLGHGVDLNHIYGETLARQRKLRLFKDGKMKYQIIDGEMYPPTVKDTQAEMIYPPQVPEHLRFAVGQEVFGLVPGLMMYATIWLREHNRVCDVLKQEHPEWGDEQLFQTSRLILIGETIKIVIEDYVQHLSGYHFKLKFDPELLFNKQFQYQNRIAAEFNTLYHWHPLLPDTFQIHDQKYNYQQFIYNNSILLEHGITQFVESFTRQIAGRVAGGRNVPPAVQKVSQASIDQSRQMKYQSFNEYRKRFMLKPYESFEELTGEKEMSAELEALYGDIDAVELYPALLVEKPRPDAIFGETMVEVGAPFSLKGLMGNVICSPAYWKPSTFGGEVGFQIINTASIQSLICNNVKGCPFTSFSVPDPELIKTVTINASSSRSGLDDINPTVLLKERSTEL
The series is described as follows: Inhibition of human recombinant COX-2 by enzyme immunoassay.

A further series relates to COX-2. Put plainly: Ratio of EC50 for membrane permeabilization to IC50 for human recombinant COX-2.
Series [3] deals with T2, Prostaglandin G/H synthase 1 (Ovis aries, UniProt P05979).
T2 sequence (P05979 whole entry): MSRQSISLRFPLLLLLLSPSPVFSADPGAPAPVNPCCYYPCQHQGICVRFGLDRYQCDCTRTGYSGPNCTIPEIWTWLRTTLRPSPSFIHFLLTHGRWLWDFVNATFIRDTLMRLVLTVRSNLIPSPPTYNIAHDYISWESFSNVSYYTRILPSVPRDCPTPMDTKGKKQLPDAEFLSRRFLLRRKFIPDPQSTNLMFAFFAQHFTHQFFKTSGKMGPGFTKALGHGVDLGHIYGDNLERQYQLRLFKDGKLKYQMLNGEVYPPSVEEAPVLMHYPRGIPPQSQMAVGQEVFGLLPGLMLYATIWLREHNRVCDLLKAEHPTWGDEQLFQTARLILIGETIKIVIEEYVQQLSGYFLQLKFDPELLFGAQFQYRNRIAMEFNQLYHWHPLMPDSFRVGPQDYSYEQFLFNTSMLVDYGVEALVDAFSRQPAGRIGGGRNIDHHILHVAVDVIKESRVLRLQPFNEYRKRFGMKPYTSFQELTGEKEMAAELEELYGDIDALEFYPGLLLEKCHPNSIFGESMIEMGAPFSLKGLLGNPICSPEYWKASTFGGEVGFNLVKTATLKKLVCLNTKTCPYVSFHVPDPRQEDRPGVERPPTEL
The series is described as follows: Inhibition of purified ovine COX-1 by enzyme immunoassay.

Turning to `NS(=O)(=O)c1ccc(C2=C(c3ccccc3)C(=O)OC2)cc1`, in series [1], the pEC50 was 3.32.
With `Cc1ccc(-c2cc(C(F)(F)F)nn2-c2ccc(S(C)(=O)=O)cc2)cc1`, the results for the negative-log IC50 (pIC50) in series [2] and in series [3] were 6.89 and < 3.30, respectively. Further, the calcein release EC50/COX-2 IC50 ratio in the series with COX-2 is 11.1. Further, in series [1], the pEC50 was 2.84.
The matching figures for `CS(=O)(=O)c1ccc(-n2nc(C(F)(F)F)cc2-c2ccccc2)cc1`: 5.16, < 3.30, 0.19 and 2.89.
The matching figures for `Cc1ccc(C2=C(c3ccc(S(C)(=O)=O)cc3)COC2=O)cc1`: 6.52, < 3.30, 20.8 and 2.21.
Turning to `Cc1ccc(C2=C(c3ccc(S(N)(=O)=O)cc3)COC2=O)cc1`, the values for the pIC50 in series [2] and in series [3] were 6.96 and 3.41, respectively. Moreover, the calcein release EC50/COX-2 IC50 ratio in the series on COX-2 was 0.22. For the same compound, the pEC50 in series [1] is 4.62.
Consider `Cc1ccc(-c2cc(C(F)(F)F)nn2-c2ccc(S(N)(=O)=O)cc2)cc1` [CELECOXIB], for which the pEC50 in series [1] was 4.30.
Same read-out and setting: the same measure for `CS(=O)(=O)c1ccc(C2=C(c3ccccc3)C(=O)OC2)cc1` [ROFECOXIB]: 1.90.
